# Values quoted from earlier work in patent US20150073057A1, “COMPOSITION AND METHOD FOR TREATMENT OF DIABETES” (BioKier, Inc., priority 2013, published 2015).
# System: overweight and obese human subjects
substance,measurement,value
"Oxyntomodulin: a gut hormone, 37 amino acid peptide co-secreted along with GLP-1 from L-cells",reduction of energy intake,~17%
